Experimental data as given in US8859569B2, “Substituted annellated pyrimidines and use thereof” (Bayer Pharma Aktiengesellschaft, priority 2011, dated 2014).

Key:
[1] = target: T1, human phosphodiesterase 5 (PDE-5) (Homo sapiens, UniProt O76074); test: Inhibition of human phosphodiesterase 5 (PDE-5), SPA assay; type: biochemical; settings: PDE-5 preparation from human platelets, [8-3H]cGMP substrate
T1 construct: PDE-5 preparations are obtained from human platelets by lysis; from tissue; host or cells: human platelets
How it was run: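 Scintillation proximity read-out with yttrium beads after 60 min room-temperature hydrolysis of 0.025 μCi [8-3H]cGMP, pH 7.5 Tris/MgCl2/EDTA buffer. Enzyme is a human platelet PDE-5 fraction, diluted to keep substrate turnover below 70%. Test concentrations 4 μM–0.0018 μM final; IC50 from inhibition curves.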

[2] = target: T2, recombinant guanylate cyclase reporter cell line (Rattus norvegicus, UniProt P19686+P20595); test: Action on recombinant guanylate cyclase reporter cell line; type: cell-based
T2 construct: expressed in transfected cells
T2 sequence (P20595 1-619): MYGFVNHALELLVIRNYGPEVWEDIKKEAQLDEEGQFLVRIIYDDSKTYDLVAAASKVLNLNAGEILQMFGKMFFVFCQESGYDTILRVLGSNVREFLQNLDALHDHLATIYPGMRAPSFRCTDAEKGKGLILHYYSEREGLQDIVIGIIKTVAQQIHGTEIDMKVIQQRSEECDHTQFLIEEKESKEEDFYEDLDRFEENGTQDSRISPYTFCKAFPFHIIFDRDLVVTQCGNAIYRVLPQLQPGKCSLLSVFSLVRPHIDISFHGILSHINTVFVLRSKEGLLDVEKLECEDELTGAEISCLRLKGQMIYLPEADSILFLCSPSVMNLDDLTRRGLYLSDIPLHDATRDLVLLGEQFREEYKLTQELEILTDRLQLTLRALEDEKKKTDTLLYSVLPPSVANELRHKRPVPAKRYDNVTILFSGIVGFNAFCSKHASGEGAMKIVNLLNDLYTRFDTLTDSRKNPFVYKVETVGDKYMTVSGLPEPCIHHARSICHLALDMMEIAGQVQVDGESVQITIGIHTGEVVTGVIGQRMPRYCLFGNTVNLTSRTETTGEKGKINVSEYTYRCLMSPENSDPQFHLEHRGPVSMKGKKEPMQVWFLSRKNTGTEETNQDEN
T2 sequence (P19686 1-690): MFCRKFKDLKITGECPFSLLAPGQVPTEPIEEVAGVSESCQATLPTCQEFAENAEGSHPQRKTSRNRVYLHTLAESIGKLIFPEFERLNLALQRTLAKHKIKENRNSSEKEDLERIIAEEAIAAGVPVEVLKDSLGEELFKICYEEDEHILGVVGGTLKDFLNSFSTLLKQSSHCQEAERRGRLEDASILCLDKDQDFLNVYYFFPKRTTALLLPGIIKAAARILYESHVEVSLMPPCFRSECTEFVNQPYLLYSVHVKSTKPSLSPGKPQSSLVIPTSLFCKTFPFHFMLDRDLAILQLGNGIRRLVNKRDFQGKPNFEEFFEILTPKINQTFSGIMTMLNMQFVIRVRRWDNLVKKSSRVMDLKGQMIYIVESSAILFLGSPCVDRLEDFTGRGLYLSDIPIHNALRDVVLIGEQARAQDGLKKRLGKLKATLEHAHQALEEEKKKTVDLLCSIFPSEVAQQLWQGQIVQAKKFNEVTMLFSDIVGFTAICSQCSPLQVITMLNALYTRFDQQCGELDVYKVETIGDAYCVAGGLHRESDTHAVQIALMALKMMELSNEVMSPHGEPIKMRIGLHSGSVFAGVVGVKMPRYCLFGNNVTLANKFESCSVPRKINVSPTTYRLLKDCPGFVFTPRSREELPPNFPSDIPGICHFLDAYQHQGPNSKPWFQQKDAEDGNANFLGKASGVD
Description: B-2. Action on Recombinant Guanylate Cyclase Reporter Cell Line
The cellular action of the compounds according to the invention is determined on a recombinant guanylate cyclase reporter cell line, as described in F. Wunder et al., Anal. Biochem. 339, 104-112 (2005).

[3] = system: aorta rings; test: Vessel-relaxing action in vitro (aorta rings, phenylephrine contraction); settings: concentration required to reduce phenylephrine-induced contraction of rabbit aorta rings by 50%
How it was run: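 Rabbit aortic rings 1.5 mm wide were held under preload in carbogen-gassed Krebs-Henseleit at 37 °C and contracted with cumulative phenylephrine. Test substance was added in rising doses on successive passes, each compared with the preceding control contraction. IC50 is the concentration that halves contraction, with 0.1% DMSO in the bath.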

IC50 [1] [nM] | MEC (minimal effective concentration) [2] [μm] | IC50 [3] [nM] | IC50 ([3]; Oryctolagus cuniculus) [nM] | SMILES
150 | 0.1 | 1470 | – | CC1(C)C(=O)Nc2nc(-c3nn(Cc4ccccc4F)c4ncc(F)cc34)nc(NCC(O)C(F)(F)F)c21 (single isomer, unassigned) [Example 96-1, 2-[5-Fluoro-1-(2-fluorobenzyl)-1H-pyrazolo[3,4-b]pyridin-3-yl]-5,5-dimethyl-4-[(3,3,3-trifluoro-2-hydroxypropyl)amino]-5,7-dihydro-6H-pyrrolo[2,3-d]pyrimidin-6-one]
12 | 1 | – | 1450 | CC1(C)C(=O)Nc2nc(-c3nn(Cc4ccccc4F)c4ncccc34)nc(N3CCC(N)C3)c21 (racemic) [Example 106, 4-(3-Aminopyrrolidin-1-yl)-2-[1-(2-fluorobenzyl)-1H-pyrazolo[3,4-b]pyridin-3-yl]-5,5-dimethyl-5,7-dihydro-6H-pyrrolo[2,3-d]pyrimidin-6-one]
4 | 0.1 | – | 228 | CC1(C)C(=O)Nc2nc(-c3nn(Cc4ccccc4F)c4ncccc34)nc(N[C@H]3CC[C@H](O)CC3)c21 [Example 95, 2-[1-(2-Fluorobenzyl)-1H-pyrazolo[3,4-b]pyridin-3-yl]-4-[(trans-4-hydroxycyclohexyl)amino]-5,5-dimethyl-5,7-dihydro-6H-pyrrolo[2,3-d]pyrimidin-6-one]
120 | 0.03 | – | 2720 | CC1(C)C(=O)Nc2nc(-c3nn(Cc4ccccc4F)c4ncc(F)cc34)nc(NCCCC(F)(F)F)c21 [Example 18, 2-[5-Fluoro-1-(2-fluorobenzyl)-1H-pyrazolo[3,4-b]pyridin-3-yl]-5,5-dimethyl-4-[(4,4,4-trifluorobutyl)amino]-5,7-dihydro-6H-pyrrolo[2,3-d]pyrimidin-6-one]
